The text below walks through data of the Kinase Knowledgebase extract (Sharma et al. 2016).

The target in this assay is EGFR (UniProt P00533).
EGFR, sequence (P00533 whole entry, looked up): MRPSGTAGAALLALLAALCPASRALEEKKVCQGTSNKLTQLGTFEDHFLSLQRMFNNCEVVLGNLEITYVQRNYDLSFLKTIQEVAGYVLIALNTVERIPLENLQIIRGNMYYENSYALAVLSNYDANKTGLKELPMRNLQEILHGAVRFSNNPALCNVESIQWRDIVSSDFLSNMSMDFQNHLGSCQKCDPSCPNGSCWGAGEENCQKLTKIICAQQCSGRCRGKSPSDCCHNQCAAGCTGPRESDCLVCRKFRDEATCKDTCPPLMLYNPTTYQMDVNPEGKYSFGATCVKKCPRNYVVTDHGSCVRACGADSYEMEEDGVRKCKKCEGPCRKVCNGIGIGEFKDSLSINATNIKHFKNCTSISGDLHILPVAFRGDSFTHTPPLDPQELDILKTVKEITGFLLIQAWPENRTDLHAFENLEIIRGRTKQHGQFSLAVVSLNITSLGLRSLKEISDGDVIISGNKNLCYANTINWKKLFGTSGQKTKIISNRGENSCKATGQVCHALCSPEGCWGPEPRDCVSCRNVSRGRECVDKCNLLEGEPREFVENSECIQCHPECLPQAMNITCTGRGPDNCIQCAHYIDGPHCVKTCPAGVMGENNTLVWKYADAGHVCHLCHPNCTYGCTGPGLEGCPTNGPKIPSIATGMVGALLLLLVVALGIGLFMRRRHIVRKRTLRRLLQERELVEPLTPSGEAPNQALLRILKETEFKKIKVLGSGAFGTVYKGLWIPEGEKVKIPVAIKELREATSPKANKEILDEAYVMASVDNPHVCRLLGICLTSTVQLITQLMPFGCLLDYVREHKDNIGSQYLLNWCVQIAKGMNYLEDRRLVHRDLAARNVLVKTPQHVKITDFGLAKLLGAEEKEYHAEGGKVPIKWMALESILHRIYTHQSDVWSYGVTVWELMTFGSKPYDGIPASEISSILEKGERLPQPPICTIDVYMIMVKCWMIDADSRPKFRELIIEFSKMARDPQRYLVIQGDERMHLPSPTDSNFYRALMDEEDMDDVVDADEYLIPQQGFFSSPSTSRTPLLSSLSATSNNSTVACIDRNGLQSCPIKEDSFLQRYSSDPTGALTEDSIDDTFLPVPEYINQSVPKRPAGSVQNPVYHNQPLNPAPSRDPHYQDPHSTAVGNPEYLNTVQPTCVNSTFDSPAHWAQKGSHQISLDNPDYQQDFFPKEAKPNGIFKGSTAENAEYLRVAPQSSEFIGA
On to `COc1ccc(Nc2ccnc(Nc3ccc(OC)c(OC)c3)n2)cc1OC`, for which the IC50 (in general, the point on the concentration scale where inhibition reaches its midpoint) is at least 10 µM.

On to `COc1cc(Nc2nccc(Nc3ccc4c(cnn4Cc4ccccc4)c3)n2)cc(OC)c1OC`, for which the IC50 is under 1.5 µM.

Turning to `COc1cc(Nc2nccc(-n3ccc(-c4ccc(Cl)cc4)n3)n2)cc(OC)c1OC`, the IC50 is at least 10 µM.

`COc1cc(Nc2ccnc(Nc3ccc(Oc4ccccc4)cc3)n2)cc(OC)c1OC` gave an IC50 of 5 to 10 µM.

In turn, `COc1cc(Nc2ccnc(Nc3ccc4c(cnn4Cc4ccccc4)c3)n2)cc(OC)c1OC` had an IC50 of 1.5 to 5 µM.

The compound `COc1ccc(-c2ccn(-c3ccnc(Nc4cc(OC)c(OC)c(OC)c4)n3)n2)cc1` showed an IC50 of 5 to 10 µM.

Take `COc1cc(Nc2nccc(Nc3cc(C(C)(C)C)n[nH]3)n2)cc(OC)c1OC`: the IC50 lay within 5 to 10 µM.

`COc1cc(Nc2nccc(-n3ccc4ccccc43)n2)cc(OC)c1OC`: the 50% inhibitory concentration (IC50) is at least 10 µM.

With `COc1cc(Nc2nccc(-n3c(=O)oc4ccccc43)n2)cc(OC)c1OC`, the half-inhibitory concentration (IC50) was at least 10 µM.

`COc1cc(Nc2nccc(-n3c(=O)[nH]c4ccccc43)n2)cc(OC)c1OC` returned an IC50 of at least 10 µM.

For `COc1cc(Nc2ccnc(Nc3ccc(OCc4ccccc4)cc3)n2)cc(OC)c1OC`, the IC50 was at least 10 µM.

With `Clc1cccc(Nc2ccnc(Nc3cccc(Cl)c3)n2)c1`, the IC50 was at least 10 µM.

`Cc1cccc(Nc2ccnc(Nc3cccc(Br)c3)n2)c1` registered an IC50 of at least 10 µM.

`COc1cc(Nc2nccc(-n3c(N)nc4ccccc43)n2)cc(OC)c1OC` gave an IC50 of at least 10 µM.

As to `COc1cc(Nc2ccnc(-n3ccc4ccccc43)n2)cc(OC)c1OC`, the IC50 is at least 10 µM.

With `Cc1cccc(Nc2nccc(Nc3cccc(Br)c3)n2)c1`, the IC50 was at least 10 µM.
